Data taken from ChEMBL document CHEMBL4507303, “Data for DCP probe TP-004” (2021).

Legend:
[1] = tested on: Mast/stem cell growth factor receptor Kit (Homo sapiens), P10721 [V559D,T670I]; settings: Compound concentration 1000.0 nM
[2] = target: Serine/threonine-protein kinase DCLK3 (Homo sapiens) (UniProt Q9C098); settings: Compound concentration 1000.0 nM
[3] = tested on: Mast/stem cell growth factor receptor Kit (Homo sapiens), P10721 [D816V]; settings: Compound concentration 1000.0 nM
[4] = target: ALK tyrosine kinase receptor (Homo sapiens) (UniProt Q9UM73); settings: Compound concentration 1000.0 nM
[5] = tested on: Tyrosine-protein kinase ABL1 (Homo sapiens), P00519 [M351T]; settings: Compound concentration 1000.0 nM
[6] = target: Receptor tyrosine-protein kinase erbB-4 (Homo sapiens) (UniProt Q15303); settings: Compound concentration 1000.0 nM
[7] = target: Cyclin-dependent kinase 9 (Homo sapiens) (UniProt P50750); settings: Compound concentration 1000.0 nM
[8] = target: Mitogen-activated protein kinase 15 (Homo sapiens) (UniProt Q8TD08); settings: Compound concentration 1000.0 nM
[9] = target: Serine/threonine-protein kinase pim-1 (Homo sapiens) (UniProt P11309); settings: Compound concentration 1000.0 nM
[10] = target: Microtubule-associated serine/threonine-protein kinase 1 (Homo sapiens) (UniProt Q9Y2H9); settings: Compound concentration 1000.0 nM
[11] = target: Tyrosine-protein kinase BTK (Homo sapiens) (UniProt Q06187); settings: Compound concentration 1000.0 nM
[12] = target: Cyclin-dependent kinase 2 homolog (Plasmodium falciparum (isolate 3D7)) (UniProt P61075); settings: Compound concentration 1000.0 nM
[13] = target: Serine/threonine-protein kinase Nek6 (Homo sapiens) (UniProt Q9HC98); settings: Compound concentration 1000.0 nM
[14] = target: Cyclin-dependent kinase 3 (Homo sapiens) (UniProt Q00526); settings: Compound concentration 1000.0 nM
[15] = target: Wee1-like protein kinase (Homo sapiens) (UniProt P30291); settings: Compound concentration 1000.0 nM
[16] = target: Serine/threonine-protein kinase Nek9 (Homo sapiens) (UniProt Q8TD19); settings: Compound concentration 1000.0 nM
[17] = target: MAP kinase-activated protein kinase 5 (Homo sapiens) (UniProt Q8IW41); settings: Compound concentration 1000.0 nM
[18] = target: 5'-AMP-activated protein kinase catalytic subunit alpha-2 (Homo sapiens) (UniProt P54646); settings: Compound concentration 1000.0 nM
[19] = target: Phosphatidylinositol 5-phosphate 4-kinase type-2 gamma (Homo sapiens) (UniProt Q8TBX8); settings: Compound concentration 1000.0 nM
[20] = target: Epidermal growth factor receptor (Homo sapiens) (UniProt P00533); settings: Compound concentration 1000.0 nM
[21] = target: Alpha-2B adrenergic receptor (Homo sapiens) (UniProt P18089); settings: Compound concentration 10.0 uM
[22] = target: Serine/threonine-protein kinase PAK 1 (Homo sapiens) (UniProt Q13153); settings: Compound concentration 1000.0 nM
[23] = target: Bone morphogenetic protein receptor type-2 (Homo sapiens) (UniProt Q13873); settings: Compound concentration 1000.0 nM
[24] = target: Cyclin-dependent kinase-like 3 (Homo sapiens) (UniProt Q8IVW4); settings: Compound concentration 1000.0 nM
[25] = tested on: Epidermal growth factor receptor (Homo sapiens), P00533 [G719S]; settings: Compound concentration 1000.0 nM
[26] = target: Tyrosine-protein kinase ABL2 (Homo sapiens) (UniProt P42684); settings: Compound concentration 1000.0 nM
[27] = target: Cyclin-dependent kinase-like 5 (Homo sapiens) (UniProt O76039); settings: Compound concentration 1000.0 nM
[28] = target: Cyclin-dependent kinase 7 (Homo sapiens) (UniProt P50613); settings: Compound concentration 1000.0 nM
[29] = target: SRSF protein kinase 1 (Homo sapiens) (UniProt Q96SB4); settings: Compound concentration 1000.0 nM
[30] = target: Serine/threonine-protein kinase Chk1 (Homo sapiens) (UniProt O14757); settings: Compound concentration 1000.0 nM
[31] = target: Serine/threonine-protein kinase MRCK gamma (Homo sapiens) (UniProt Q6DT37); settings: Compound concentration 1000.0 nM
[32] = target: Serine/threonine-protein kinase D2 (Homo sapiens) (UniProt Q9BZL6); settings: Compound concentration 1000.0 nM
[33] = target: Myosin light chain kinase 2, skeletal/cardiac muscle (Homo sapiens) (UniProt Q9H1R3); settings: Compound concentration 1000.0 nM
[34] = target: Serine/threonine-protein kinase/endoribonuclease IRE1 (Homo sapiens) (UniProt O75460); settings: Compound concentration 1000.0 nM
[35] = target: GABA-A receptor; anion channel (Rattus norvegicus) (UniProt O09028+P15431+P18506+P18508+P19969+P20236+P23574+P23576+P28471+P28473+P30191+P62813+P63079+P63138+Q91ZM7+Q9ES14); settings: Compound concentration 10.0 uM
[36] = target: Cyclin-dependent kinase 5 (Homo sapiens) (UniProt Q00535); settings: Compound concentration 1000.0 nM
[37] = target: Serine/threonine-protein kinase 24 (Homo sapiens) (UniProt Q9Y6E0); settings: Compound concentration 1000.0 nM
[38] = target: Serine/threonine-protein kinase 26 (Homo sapiens) (UniProt Q9P289); settings: Compound concentration 1000.0 nM
[39] = target: Mitogen-activated protein kinase kinase kinase kinase 4 (Homo sapiens) (UniProt O95819); settings: Compound concentration 1000.0 nM
[40] = target: Cyclin-dependent kinase 4 (Homo sapiens) (UniProt P11802); settings: Compound concentration 1000.0 nM
[41] = target: Serine/threonine-protein kinase VRK2 (Homo sapiens) (UniProt Q86Y07); settings: Compound concentration 1000.0 nM
[42] = target: Phosphatidylinositol 4,5-bisphosphate 3-kinase catalytic subunit alpha isoform (Homo sapiens) (UniProt P42336); settings: Compound concentration 1000.0 nM
[43] = target: Serine/threonine-protein kinase LATS2 (Homo sapiens) (UniProt Q9NRM7); settings: Compound concentration 1000.0 nM
[44] = target: Tyrosine-protein kinase CSK (Homo sapiens) (UniProt P41240); settings: Compound concentration 1000.0 nM
Tyrosine-protein kinase CSK (Homo sapiens), sequence (P41240 2-450 limits assumed): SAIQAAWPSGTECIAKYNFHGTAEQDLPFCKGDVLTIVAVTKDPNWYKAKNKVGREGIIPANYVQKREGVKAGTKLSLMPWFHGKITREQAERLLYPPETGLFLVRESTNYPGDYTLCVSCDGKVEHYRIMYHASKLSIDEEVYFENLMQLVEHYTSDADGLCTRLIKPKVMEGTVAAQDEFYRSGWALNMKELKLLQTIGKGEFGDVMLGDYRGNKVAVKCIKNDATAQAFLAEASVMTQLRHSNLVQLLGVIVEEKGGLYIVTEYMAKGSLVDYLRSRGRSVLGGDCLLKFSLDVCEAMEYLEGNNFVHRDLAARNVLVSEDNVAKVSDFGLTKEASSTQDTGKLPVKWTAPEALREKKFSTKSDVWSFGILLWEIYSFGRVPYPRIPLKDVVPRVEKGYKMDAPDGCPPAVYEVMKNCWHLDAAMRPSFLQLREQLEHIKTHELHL

Mitogen-activated protein kinase kinase kinase kinase 4 (Homo sapiens), sequence (O95819 2-1239 limits assumed): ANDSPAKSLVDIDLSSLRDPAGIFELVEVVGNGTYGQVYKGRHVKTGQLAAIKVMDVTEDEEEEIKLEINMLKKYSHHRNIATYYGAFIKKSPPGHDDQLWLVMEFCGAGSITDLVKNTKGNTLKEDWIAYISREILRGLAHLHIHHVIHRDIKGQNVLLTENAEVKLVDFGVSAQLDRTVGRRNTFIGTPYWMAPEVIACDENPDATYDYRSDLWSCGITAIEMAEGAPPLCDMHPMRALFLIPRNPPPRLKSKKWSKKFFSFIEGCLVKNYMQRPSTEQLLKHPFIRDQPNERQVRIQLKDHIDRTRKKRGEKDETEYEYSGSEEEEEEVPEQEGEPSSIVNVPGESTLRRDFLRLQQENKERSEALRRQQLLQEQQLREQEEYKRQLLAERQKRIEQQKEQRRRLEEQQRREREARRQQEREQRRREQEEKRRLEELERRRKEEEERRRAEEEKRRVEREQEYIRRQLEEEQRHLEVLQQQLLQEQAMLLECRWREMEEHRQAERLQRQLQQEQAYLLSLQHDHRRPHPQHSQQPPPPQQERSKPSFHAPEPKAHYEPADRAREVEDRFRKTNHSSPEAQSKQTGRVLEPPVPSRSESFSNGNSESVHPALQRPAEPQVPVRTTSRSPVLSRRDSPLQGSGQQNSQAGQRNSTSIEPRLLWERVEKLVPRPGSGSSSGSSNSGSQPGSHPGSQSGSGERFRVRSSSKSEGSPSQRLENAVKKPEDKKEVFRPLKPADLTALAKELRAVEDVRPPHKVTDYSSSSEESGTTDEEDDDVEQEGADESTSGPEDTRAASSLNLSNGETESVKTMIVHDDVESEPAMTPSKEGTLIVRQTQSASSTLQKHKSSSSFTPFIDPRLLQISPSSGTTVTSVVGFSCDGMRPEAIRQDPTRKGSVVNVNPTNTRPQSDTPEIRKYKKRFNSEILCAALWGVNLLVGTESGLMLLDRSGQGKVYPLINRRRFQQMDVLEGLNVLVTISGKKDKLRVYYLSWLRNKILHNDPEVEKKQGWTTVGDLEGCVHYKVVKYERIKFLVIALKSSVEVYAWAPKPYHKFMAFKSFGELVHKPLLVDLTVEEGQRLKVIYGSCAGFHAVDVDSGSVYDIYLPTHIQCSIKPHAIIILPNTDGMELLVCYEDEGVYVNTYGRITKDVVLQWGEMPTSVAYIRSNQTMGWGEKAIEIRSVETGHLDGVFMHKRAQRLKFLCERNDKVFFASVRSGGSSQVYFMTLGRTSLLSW
Cyclin-dependent kinase 7 (Homo sapiens), sequence (P50613 whole entry): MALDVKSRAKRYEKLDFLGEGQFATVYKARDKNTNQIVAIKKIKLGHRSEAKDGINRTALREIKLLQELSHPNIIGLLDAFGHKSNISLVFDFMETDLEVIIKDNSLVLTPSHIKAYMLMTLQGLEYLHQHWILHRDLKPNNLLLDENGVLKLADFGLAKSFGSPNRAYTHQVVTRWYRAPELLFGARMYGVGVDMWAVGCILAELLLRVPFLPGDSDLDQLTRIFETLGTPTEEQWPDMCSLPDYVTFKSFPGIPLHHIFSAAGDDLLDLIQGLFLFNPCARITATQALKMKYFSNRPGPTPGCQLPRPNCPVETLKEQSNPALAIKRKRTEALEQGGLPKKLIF
Wee1-like protein kinase (Homo sapiens), sequence (P30291 whole entry, looked up): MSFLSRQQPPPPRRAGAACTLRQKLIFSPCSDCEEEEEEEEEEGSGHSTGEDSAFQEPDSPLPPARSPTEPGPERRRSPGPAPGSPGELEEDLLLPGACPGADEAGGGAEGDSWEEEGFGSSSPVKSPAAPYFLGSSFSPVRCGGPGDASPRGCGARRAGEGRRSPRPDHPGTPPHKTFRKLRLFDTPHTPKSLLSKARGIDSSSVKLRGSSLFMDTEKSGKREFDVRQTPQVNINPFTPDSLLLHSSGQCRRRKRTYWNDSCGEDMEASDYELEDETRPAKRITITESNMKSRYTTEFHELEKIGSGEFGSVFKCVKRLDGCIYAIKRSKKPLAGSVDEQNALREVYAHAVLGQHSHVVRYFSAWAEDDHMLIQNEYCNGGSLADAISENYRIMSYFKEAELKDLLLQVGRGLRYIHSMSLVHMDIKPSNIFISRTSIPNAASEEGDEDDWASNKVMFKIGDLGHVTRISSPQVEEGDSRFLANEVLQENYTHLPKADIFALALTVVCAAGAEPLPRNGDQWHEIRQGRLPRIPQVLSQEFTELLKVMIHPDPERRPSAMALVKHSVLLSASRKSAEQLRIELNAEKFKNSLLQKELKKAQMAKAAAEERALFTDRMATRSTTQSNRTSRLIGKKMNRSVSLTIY
Serine/threonine-protein kinase PAK 1 (Homo sapiens), sequence (Q13153 whole entry): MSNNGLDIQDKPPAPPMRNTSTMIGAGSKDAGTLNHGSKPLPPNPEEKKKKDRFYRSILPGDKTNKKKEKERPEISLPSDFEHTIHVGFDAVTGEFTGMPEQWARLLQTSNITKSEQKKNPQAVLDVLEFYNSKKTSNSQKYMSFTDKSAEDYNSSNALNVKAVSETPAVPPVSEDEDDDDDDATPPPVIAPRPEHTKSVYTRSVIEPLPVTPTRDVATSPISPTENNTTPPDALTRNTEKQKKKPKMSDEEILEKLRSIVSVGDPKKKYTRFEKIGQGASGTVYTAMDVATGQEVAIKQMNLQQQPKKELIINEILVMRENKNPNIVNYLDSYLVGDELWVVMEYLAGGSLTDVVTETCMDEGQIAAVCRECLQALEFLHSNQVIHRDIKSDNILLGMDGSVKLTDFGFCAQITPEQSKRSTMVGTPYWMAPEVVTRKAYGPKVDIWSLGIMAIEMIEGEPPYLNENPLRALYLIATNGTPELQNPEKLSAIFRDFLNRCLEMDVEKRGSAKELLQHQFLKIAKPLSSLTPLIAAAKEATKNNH
Cyclin-dependent kinase 4 (Homo sapiens), sequence (P11802 whole entry): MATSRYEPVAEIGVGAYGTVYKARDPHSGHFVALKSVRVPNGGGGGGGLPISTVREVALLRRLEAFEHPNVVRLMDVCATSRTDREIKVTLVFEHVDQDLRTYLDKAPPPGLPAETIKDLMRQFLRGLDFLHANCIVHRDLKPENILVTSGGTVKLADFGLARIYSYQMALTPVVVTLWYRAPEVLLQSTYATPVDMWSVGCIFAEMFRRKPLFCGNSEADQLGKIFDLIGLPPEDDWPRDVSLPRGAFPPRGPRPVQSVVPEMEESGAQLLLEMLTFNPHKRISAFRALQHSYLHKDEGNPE
Cyclin-dependent kinase 9 (Homo sapiens), sequence (P50750 whole entry): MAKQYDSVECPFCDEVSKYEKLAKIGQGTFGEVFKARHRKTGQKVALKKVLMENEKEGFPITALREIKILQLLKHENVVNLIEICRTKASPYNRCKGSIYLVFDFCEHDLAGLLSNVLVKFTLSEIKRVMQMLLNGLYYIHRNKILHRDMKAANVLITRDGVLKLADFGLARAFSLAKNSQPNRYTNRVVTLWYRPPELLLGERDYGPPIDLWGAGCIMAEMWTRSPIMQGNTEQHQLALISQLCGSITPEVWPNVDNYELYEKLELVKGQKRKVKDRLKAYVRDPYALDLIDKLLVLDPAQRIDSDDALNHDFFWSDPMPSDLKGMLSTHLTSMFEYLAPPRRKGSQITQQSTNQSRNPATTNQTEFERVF
Serine/threonine-protein kinase Chk1 (Homo sapiens), sequence (O14757 whole entry): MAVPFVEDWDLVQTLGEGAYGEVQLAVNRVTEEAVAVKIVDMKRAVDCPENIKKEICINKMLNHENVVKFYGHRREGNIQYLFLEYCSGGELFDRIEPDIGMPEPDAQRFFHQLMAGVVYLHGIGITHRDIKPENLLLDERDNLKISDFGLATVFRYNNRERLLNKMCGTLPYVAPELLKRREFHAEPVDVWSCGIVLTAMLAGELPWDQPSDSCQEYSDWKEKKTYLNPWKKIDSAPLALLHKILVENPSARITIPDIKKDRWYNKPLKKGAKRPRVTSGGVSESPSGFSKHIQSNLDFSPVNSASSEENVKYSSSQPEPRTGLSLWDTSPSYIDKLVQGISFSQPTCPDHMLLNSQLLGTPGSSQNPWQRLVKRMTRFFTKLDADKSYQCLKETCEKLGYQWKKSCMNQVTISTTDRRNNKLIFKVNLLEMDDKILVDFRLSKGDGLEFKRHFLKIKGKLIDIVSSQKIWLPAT
Serine/threonine-protein kinase VRK2 (Homo sapiens), sequence (Q86Y07 whole entry, canonical isoform): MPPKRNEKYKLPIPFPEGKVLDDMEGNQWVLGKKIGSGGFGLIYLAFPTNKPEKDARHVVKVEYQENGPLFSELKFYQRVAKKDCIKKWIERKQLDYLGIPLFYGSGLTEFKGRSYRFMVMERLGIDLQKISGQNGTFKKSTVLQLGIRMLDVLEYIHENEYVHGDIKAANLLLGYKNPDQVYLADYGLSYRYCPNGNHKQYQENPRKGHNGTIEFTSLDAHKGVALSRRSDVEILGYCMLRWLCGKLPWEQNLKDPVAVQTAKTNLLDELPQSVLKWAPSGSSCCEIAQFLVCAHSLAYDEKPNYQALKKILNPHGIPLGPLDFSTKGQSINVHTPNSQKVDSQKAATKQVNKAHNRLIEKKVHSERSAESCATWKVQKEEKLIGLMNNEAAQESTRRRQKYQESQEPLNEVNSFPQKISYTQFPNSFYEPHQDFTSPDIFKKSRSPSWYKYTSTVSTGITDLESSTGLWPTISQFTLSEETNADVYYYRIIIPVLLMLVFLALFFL

Cc1nc(N2CC[C@@H](O)C2)ncc1-c1cc(C(F)(F)F)cc2[nH]ncc12 [TP-004]
residual activity [1]: 68%
residual activity [2]: 96%
residual activity [3]: 100%
residual activity [4]: 81%
residual activity [5]: 72%
residual activity [6]: 87%
residual activity [7]: 87%
residual activity [8]: 86%
residual activity [9]: 100%
residual activity [10]: 100%
residual activity [11]: 63%
residual activity [12]: 61%
residual activity [13]: 89%
residual activity [14]: 83%
residual activity [15]: 73%
residual activity [16]: 96%
residual activity [17]: 68%
residual activity [18]: 100%
residual activity [19]: 100%
residual activity [20]: 71%
inhibition [21]: 12.5%
residual activity [22]: 100%
residual activity [23]: 81%
residual activity [24]: 100%
residual activity [25]: 100%
residual activity [26]: 60%
residual activity [27]: 77%
residual activity [28]: 68%
residual activity [29]: 100%
residual activity [30]: 100%
residual activity [31]: 100%
residual activity [32]: 79%
residual activity [33]: 100%
residual activity [34]: 86%
inhibition [35]: 54.3%
residual activity [36]: 99%
residual activity [37]: 100%
residual activity [38]: 59%
residual activity [39]: 82%
residual activity [40]: 63%
residual activity [41]: 86%
residual activity [42]: 100%
residual activity [43]: 26%
residual activity [44]: 100%
